Measurements reported in patent publication US7786174B2, “Methods and compounds for inhibiting amyloid deposits” (Bellus Health (International) Limited, priority 1999, dated 2010).

Tests used:
Synthetic human IAPP = target: T1, Synthetic human IAPP (Homo sapiens, UniProt P10997); assay: Rate of amyloid fibril formation by Thioflavine T (ThT) spectroscopy; assay type: biochemical; conditions: ThT 62.5 μM; excitation 440 nm, emission 482 nm; readings from 5 min, over 4-6 h and after overnight at room temperature
T1 construct: Synthetic human IAPP (Bachem) was dissolved in 40% trifluoroethanol and freeze-dried; purchased Bachem; host or cells: chemical synthesis
T1 sequence (P10997 34-70 limits assumed): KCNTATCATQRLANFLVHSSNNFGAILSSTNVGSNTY
Protocol: Determination of the Rate of Amyloid Fibril Formation by Thioflavine T Spectroscopy
Detection of ThT fluorescence can be used as a sensitive assay for amyloid fibril formation under different conditions.
Synthetic human IAPP (Bachem) was dissolved in 40% trifluoroethanol and freeze-dried into conveniently-sized aliquots. IAPP was prepared immediately before the measurements by dissolving in 40% 1,1,1,3,3,3-hexafluoro-2-propanol (HFIP) in water to maintain the peptide in alpha helical conformation and soluble. A stock solution of ThT (2.5 mM) was prepared, 7.9 mg in 10 mL Tris-HCl pH 7.0 and filtered (0.22 μm). Solutions were kept in the dark until use. Fluorescence was examined at 440 nm excitation (slit 5 nm), and emission at 482 nm (slit 10 nm) with stirring. […] The sample was stirred for 5 min. before taking a reading. Measurements were made at an initial time point (5 min. from sample preparation), at intervals over the next 4-6 h and after overnight incubation at room temperature.

IAPP = target: T2, IAPP (Homo sapiens, UniProt P10997); assay: Circular dichroism analysis of IAPP-associated fibril formation (β-sheet conformation), co-incubation procedure; assay type: biochemical; conditions: change in ellipticity at 218 nm vs peptide-only control; molar ratio 1:10 peptide:compound; water or 10 mM phosphate buffer pH 7; relative value active / not active
T2 construct: add 10 μL of 10 mg/mL IAPP stock solution (final 100 μg peptide)
T2 sequence (P10997 34-70 limits assumed): T1 sequence (P10997 34-70 limits assumed)
Protocol: Cell/cuvette: Hellma quartz (QS) with 1.0 mm pathlength
Wavelength interval: 250 nm-190 nm
Scanning speed: 20 nm/min
The assay, a co-incubation procedure, examines the ability of a compound or substance to inhibit the assembly of amyloid fibrils, e.g., to test for the presence of the amyloidotic β-sheet conformation in the presence of soluble IAPP. Samples are run in the presence and absence (i.e., water alone) of buffering agent, which is done to determine if competitive effects are seen with the ionic buffer (usually phosphate).
Add components used at a molar ratio of 1:10 [peptide:compound]; add 10 μL of 10 mg/mL IAPP stock solution (final 100 μg peptide) to the aqueous solution containing compound to a final volume of 400 μl. The pH of the final assay solution is measured to ensure there is no fluctuation and the spectrum is accumulated using the parameters as shown above.
Add desired amount of compound to achieve a 1:10 molar ratio in 10 mM phosphate buffer, pH 7. Add 10 μL of 10 mg/mL IAPP stock solution (final peptide 100 μg) to the phosphate buffered solution containing the compound and bring to a final volume of 400 μL. The pH of the final assay solution is measured to ensure there is no fluctuation and the spectrum is accumulated using the parameters as shown above.
In both assays, a control sample is run with each test group.
Make fresh 1 mg/mL stock solution of IAPP in 10 mM phosphate buffer, pH 7. Add desired amount of compound to achieve a 1:10 molar ratio in 10 mM phosphate buffer, pH 7. Incubate for 3 days at room temperature. Make up to final volume of 400 μL with 10 mM phosphate buffer, pH 7. The pH of the final assay solution is measured to ensure there is no fluctuation and the spectrum is accumulated using the parameters as shown above.
Plots of the spectra (control and treated) are individually assembled and the changes in ellipticity at 218 nm are examined. This minimum is directly correlated with the amount of β-sheet present in the sample.

SMILES	effect on IAPP-associated fibril assembly (ThT fluorescence) (Synthetic human IAPP)	Activity (IAPP)
COc1ccc(S(=O)(=O)[O-])c2cccnc12.[Na+] [8-methoxyquinoline-5-sulfonic acid, sodium salt]	inhibit or prevent IAPP-associated fibril assembly	Active
O=S(=O)([O-])NC1CCCCC1.[Na+] [cyclohexylsulfamic acid, sodium salt]	inhibit or prevent IAPP-associated fibril assembly	Active
CN(C)CCCS(=O)(=O)O [3-dimethylamino-1-propanesulfonic acid]	inhibit or prevent IAPP-associated fibril assembly	Active
Cl.c1ccc2c(c1)CCNC2 [1,2,3,4-tetrahydroisoquinoline, HCl]	inhibit or prevent IAPP-associated fibril assembly	Active
O=C(O)C(F)(F)C(F)(F)C(F)(F)C(=O)O [hexafluoroglutaric acid]	inhibit or prevent IAPP-associated fibril assembly	Active
N[C@@H](COP(=O)(O)O)C(=O)O [O-phospho-L-serine]	inhibit or prevent IAPP-associated fibril assembly	Active
O=S(=O)(O)CCCNCCCO [3-(3-hydroxy-1-propyl)amino-1-propanesulfonic acid]	inhibit or prevent IAPP-associated fibril assembly	Active
O=S(=O)([O-])CCCN1CC=C(c2ccccc2)CC1.[Na+] [4-phenyl-1-(3′-sulfopropyl)-1,2,3,6-tetrahydropyridine, sodium salt]	inhibit or prevent IAPP-associated fibril assembly	Active
NCC(O)CS(=O)(=O)O (stereo not drawn) [3-amino-2-hydroxy-1-propanesulfonic acid]	inhibit or prevent IAPP-associated fibril assembly	Active
